Key:
[1] = target: Human cGAS amino acids 155-522 (Homo sapiens (Human), UniProt Q8N884); test: cGAS biochemical activity assay (ATP remaining, Kinase-Glo Max luminescence); conditions: human cGAS 155-522, ATP remaining (Kinase-Glo Max); read-out: cGAS IC50
[2] = test system: cGAS/STING pathway in THP1 cells; test: THP1 cell-based cGAS/STING pathway activity assay (IRF-3-linked luciferase reporter); conditions: Homo sapiens, THP-1
How it was run: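 THP1 cells carrying an IRF-3-driven luciferase reporter were read across a range of compound concentrations, and IC50 values were derived from these concentration responses; the assay upper limit was 100 μM.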

Sequence of Human cGAS amino acids 155-522 (Q8N884 157-522): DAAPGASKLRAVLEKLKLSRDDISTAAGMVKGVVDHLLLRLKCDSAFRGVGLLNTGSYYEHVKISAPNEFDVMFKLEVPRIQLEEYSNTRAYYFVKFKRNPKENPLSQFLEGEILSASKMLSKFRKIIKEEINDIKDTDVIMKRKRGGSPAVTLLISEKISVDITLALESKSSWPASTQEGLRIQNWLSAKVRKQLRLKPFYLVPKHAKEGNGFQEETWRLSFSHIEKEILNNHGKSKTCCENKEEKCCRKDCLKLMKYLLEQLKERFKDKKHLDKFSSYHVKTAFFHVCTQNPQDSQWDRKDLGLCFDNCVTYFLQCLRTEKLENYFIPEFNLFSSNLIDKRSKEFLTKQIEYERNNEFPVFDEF

Row | Structure (SMILES) | IC50 [1] [µM] | IC50 [2] [µM]
1 | Cc1[nH]c2c(-c3ccccc3)c(C(F)(F)F)nn2c(=O)c1C(=O)NS(=O)(=O)c1ccccc1Cl [Compound A1127, N-((2-chlorophenyl)sulfonyl)-5-methyl-7-oxo-3-phenyl-2-(trifluoromethyl)-4,7-dihydropyrazolo[1,5-a]pyrimidine-6-carboxamide] | < 20 | 20 to 100
2 | Cc1nc(NC(=O)c2c(C)[nH]c3c(-c4ccccc4)c(C(F)(F)F)nn3c2=O)oc1C [Compound A1056, N-(4,5-dimethyloxazol-2-yl)-5-methyl-7-oxo-3-phenyl-2-(trifluoromethyl)-4,7-dihydropyrazolo[1,5-a]pyrimidine-6-carboxamide] | < 20 | 20 to 100
3 | COc1cccc(CS(=O)(=O)NC(=O)c2c(C)[nH]c3c(-c4ccccc4)c(C(F)(F)F)nn3c2=O)c1 [Compound A1132, N-((3-methoxybenzyl)sulfonyl)-5-methyl-7-oxo-3-phenyl-2-(trifluoromethyl)-4,7-dihydropyrazolo[1,5-a]pyrimidine-6-carboxamide] | < 20 | 20 to 100
4 | COc1cccc(NC(=O)c2c(C)[nH]c3c(-c4ccccc4)c(C(F)(F)F)nn3c2=O)c1Cl [Compound A1135, N-(2-chloro-3-methoxyphenyl)-5-methyl-7-oxo-3-phenyl-2-(trifluoromethyl)-4,7-dihydropyrazolo[1,5-a]pyrimidine-6-carboxamide] | < 20 | < 20
5 | Cc1[nH]c2c(-c3ccccc3)c(C(F)(F)F)nn2c(=O)c1C(=O)Nc1cccnc1S(C)(=O)=O [Compound A1096, 5-methyl-N-(2-(methylsulfonyl)pyridin-3-yl)-7-oxo-3-phenyl-2-(trifluoromethyl)-4,7-dihydropyrazolo[1,5-a]pyrimidine-6-carboxamide] | < 20 | 20 to 100
6 | Cc1[nH]c2c(-c3ccccc3)c(C(F)(F)F)nn2c(=O)c1C(=O)Nc1cccc(N)c1 [Compound A1069, N-(3-aminophenyl)-5-methyl-7-oxo-3-phenyl-2-(trifluoromethyl)-4,7-dihydropyrazolo[1,5-a]pyrimidine-6-carboxamide] | < 20 | 20 to 100
7 | Cc1[nH]c2c(-c3ccccc3)c(C(F)(F)F)nn2c(=O)c1C(=O)Nc1ccccc1S(=O)(=O)C(C)C [Compound A1051, N-(2-(isopropylsulfonyl)phenyl)-5-methyl-7-oxo-3-phenyl-2-(trifluoromethyl)-4,7-dihydropyrazolo[1,5-a]pyrimidine-6-carboxamide] | < 20 | 20 to 100
8 | COc1cccc(S(=O)(=O)NC(=O)c2c(C)[nH]c3c(-c4ccccc4)c(C(F)(F)F)nn3c2=O)c1 [Compound A1125, N-((3-methoxyphenyl)sulfonyl)-5-methyl-7-oxo-3-phenyl-2-(trifluoromethyl)-4,7-dihydropyrazolo[1,5-a]pyrimidine-6-carboxamide] | < 20 | 20 to 100
9 | Cc1cnc(NC(=O)c2c(C)[nH]c3c(-c4ccccc4)c(C(F)(F)F)nn3c2=O)o1 [Compound A1075, 5-methyl-N-(5-methyloxazol-2-yl)-7-oxo-3-phenyl-2-(trifluoromethyl)-4,7-dihydropyrazolo[1,5-a]pyrimidine-6-carboxamide] | < 20 | 20 to 100
10 | Cc1[nH]c2c(-c3ccccc3)c(C(F)(F)F)nn2c(=O)c1C(=O)Nc1ccc(S(C)(=O)=O)nc1 [Compound A1113, 5-methyl-N-(6-(methylsulfonyl)pyridin-3-yl)-7-oxo-3-phenyl-2-(trifluoromethyl)-4,7-dihydropyrazolo[1,5-a]pyrimidine-6-carboxamide] | 20 to 250 | > 100

Further lines, results first:

Row | IC50 [1] [µM] | IC50 [2] [µM] | Structure (SMILES)
11 | < 20 | < 20 | Cc1[nH]c2c(-c3ccccc3)c(C(F)(F)F)nn2c(=O)c1-c1nc2c(C)cccc2o1 [Compound C1060, 5-methyl-6-(4-methylbenzo[d]oxazol-2-yl)-3-phenyl-2-(trifluoromethyl)pyrazolo[1,5-a]pyrimidin-7(4H)-one]
12 | > 250 | < 20 | COCc1[nH]c2c(-c3ccccc3)c(C(F)(F)F)nn2c(=O)c1-c1ncc(C2CCCC2)o1 [Compound C1013, 6-(5-cyclopentyloxazol-2-yl)-5-(methoxymethyl)-3-phenyl-2-(trifluoromethyl)pyrazolo[1,5-a]pyrimidin-7(4H)-one]
13 | 20 to 250 | < 20 | COc1nn2c(=O)c(-c3nc4c(OC)cccc4o3)c(C)[nH]c2c1-c1ccccc1 [Compound C1064, 2-methoxy-6-(4-methoxybenzo[d]oxazol-2-yl)-5-methyl-3-phenylpyrazolo[1,5-a]pyrimidin-7(4H)-one]
14 | < 20 | > 100 | COc1cccc2oc(-c3c(C[S+](C)[O-])[nH]c4c(-c5ccccc5)c(C(F)(F)F)nn4c3=O)nc12 (centres unmarked) [Compound C1137, 6-(4-methoxybenzo[d]oxazol-2-yl)-5-((methylsulfinyl)methyl)-3-phenyl-2-(trifluoromethyl)pyrazolo[1,5-a]pyrimidin-7(4H)-one]
15 | < 20 | < 20 | CCc1cccc2oc(-c3c(C)[nH]c4c(-c5ccccc5)c(C(F)(F)F)nn4c3=O)nc12 [Compound C1046, 6-(4-ethylbenzo[d]oxazol-2-yl)-5-methyl-3-phenyl-2-(trifluoromethyl)pyrazolo[1,5-a]pyrimidin-7(4H)-one]
16 | < 20 | 20 to 100 | COc1ccc(C(=O)O)c2oc(-c3c(C)[nH]c4c(-c5ccccc5)c(C(F)(F)F)nn4c3=O)nc12 [Compound C1130]
17 | < 20 | < 20 | COc1cc(C(C)O)cc2oc(-c3c(C)[nH]c4c(-c5ccccc5)c(C#N)nn4c3=O)nc12 (centres unmarked) [Compound C1240, 6-(6-(1-hydroxyethyl)-4-methoxybenzo[d]oxazol-2-yl)-5-methyl-7-oxo-3-phenyl-4,7-dihydropyrazolo[1,5-a]pyrimidine-2-carbonitrile]
18 | < 20 | > 100 | COc1cccc2oc(-c3c(C(=O)O)[nH]c4c(-c5ccccc5)c(C(F)(F)F)nn4c3=O)nc12 [Compound C1131, 6-(4-methoxybenzo[d]oxazol-2-yl)-7-oxo-3-phenyl-2-(trifluoromethyl)-4,7-dihydropyrazolo[1,5-a]pyrimidine-5-carboxylic acid]
19 | < 20 | < 20 | COc1[nH]c2c(-c3ccccc3)c(C(F)(F)F)nn2c(=O)c1-c1nc2c(OC)cccc2o1 [Compound C1084, 5-methoxy-6-(4-methoxybenzo[d]oxazol-2-yl)-3-phenyl-2-(trifluoromethyl)pyrazolo[1,5-a]pyrimidin-7(4H)-one]
20 | < 20 | > 100 | COc1cccc2oc(-c3c(COCc4cnc[nH]4)[nH]c4c(-c5ccccc5)c(C(F)(F)F)nn4c3=O)nc12 [Compound C1182, 5-(((1H-imidazol-5-yl)methoxy)methyl)-6-(4-methoxybenzo[d]oxazol-2-yl)-3-phenyl-2-(trifluoromethyl)pyrazolo[1,5-a]pyrimidin-7(4H)-one]
21 | < 20 | > 100 | Cc1[nH]c2c(-c3ccccc3)c(C(F)(F)F)nn2c(=O)c1-c1nnc(C2CCCO2)o1 (centres unmarked) [Compound D1012, 5-methyl-3-phenyl-6-(5-(tetrahydrofuran-2-yl)-1,3,4-oxadiazol-2-yl)-2-(trifluoromethyl)pyrazolo[1,5-a]pyrimidin-7(4H)-one]
22 | < 20 | 20 to 100 | COc1cccc2oc(-c3c(COC4COC4)[nH]c4c(-c5ccccc5)c(C(F)(F)F)nn4c3=O)nc12 [Compound C1152, 6-(4-methoxybenzo[d]oxazol-2-yl)-5-((oxetan-3-yloxy)methyl)-3-phenyl-2-(trifluoromethyl)pyrazolo[1,5-a]pyrimidin-7(4H)-one]
23 | > 250 | < 20 | COc1ccc2oc(-c3c(C)[nH]c4c(-c5ccccc5)c(C(F)(F)F)nn4c3=O)nc2c1 [Compound C1012, 6-(5-methoxybenzo[d]oxazol-2-yl)-5-methyl-3-phenyl-2-(trifluoromethyl)pyrazolo[1,5-a]pyrimidin-7(4H)-one]
24 | 20 to 250 | > 100 | Cc1[nH]c2c(-c3ccccc3)c(C(F)(F)F)nn2c(=O)c1-c1nc2c(S(C)(=O)=O)cccc2o1 [Compound C1054, 5-methyl-6-(4-(methylsulfonyl)benzo[d]oxazol-2-yl)-3-phenyl-2-(trifluoromethyl)pyrazolo[1,5-a]pyrimidin-7(4H)-one]
25 | < 20 | > 100 | Cc1[nH]c2c(-c3ccccc3)c(C(F)(F)F)nn2c(=O)c1-c1nnc(C2CCCCC2)o1 [Compound D1004, 6-(5-cyclohexyl-1,3,4-oxadiazol-2-yl)-5-methyl-3-phenyl-2-(trifluoromethyl)pyrazolo[1,5-a]pyrimidin-7(4H)-one]
26 | < 20 | 20 to 100 | COc1cccc2oc(-c3c(COCCO)[nH]c4c(-c5ccccc5)c(C(F)(F)F)nn4c3=O)nc12 [Compound C1226, 5-((2-hydroxyethoxy)methyl)-6-(4-methoxybenzo[d]oxazol-2-yl)-3-phenyl-2-(trifluoromethyl)pyrazolo[1,5-a]pyrimidin-7(4H)-one]
27 | < 20 | > 100 | COc1cccc2oc(-c3c(COCC4CNC(=O)O4)[nH]c4c(-c5ccccc5)c(C#N)nn4c3=O)nc12 (centres unmarked) [Compound C1251, 6-(4-methoxybenzo[d]oxazol-2-yl)-7-oxo-5-(((2-oxooxazolidin-5-yl)methoxy)methyl)-3-phenyl-4,7-dihydropyrazolo[1,5-a]pyrimidine-2-carbonitrile]
28 | 20 to 250 | < 20 | Cc1[nH]c2c(-c3ccccc3)c(C(F)(F)F)nn2c(=O)c1-c1nc2ccccc2n1-c1ccccc1 [Compound C1229, 5-methyl-3-phenyl-6-(1-phenyl-1H-benzo[d]imidazol-2-yl)-2-(trifluoromethyl)pyrazolo[1,5-a]pyrimidin-7(4H)-one]
